{"source": "patent US20160138113A1", "about": "“METHODS AND COMPOSITIONS FOR THE DIAGNOSIS, PROGNOSIS AND TREATMENT OF BRAIN METASTASIS” (MEMORIAL SLOAN-KETTERING CANCER CENTER, priority 2013, published 2016)", "test_system": "CTSS", "test": "shRNA-mediated CTSS knockdown in Br-M cells (qPCR, western blot)", "format": "cell-based, human", "from_the_text": "Five shRNA sequences targeting CTSS were obtained from the RNAi Codex and RNAi Consortium. shRNA sequences were inserted into the targeting hairpin sequence for the pRetroSuper vector. Correct insertion into the vector was verified by digestion and sequencing of the vector. Plasmids with the correct shRNA targeting sequence were transfected into H29 viral packaging cells. Viral particles were concentrated from the H29 cell supernatant, added to the target cells in the presence of polybrene and cells were selected with puromycin. One of the […] shRNAs (CTSS shRNA: GATAAAGTTTGCTAAGTAA—TTACTTAGCAAACTTTATC) was used for subsequent experiments to target CTSS with 90% KD efficiency. A non-targeting shRNA [CGCCATAAATATAACTTTA—TAAAGTTATATTTATGGCG] was used as control.\nRNA was isolated with Trizol, DNase treated, and 0.2 μg of RNA was used for cDNA synthesis. Details about the Taqman assays can be found in Table 4. […]\nConditioned media (CM) from Br-M cell lines was generated by incubating confluent cell layers in serum-free DMEM media for 24 hours. […] Protein was quantified using the BCA assay (Pierce). […] Membranes were probed with antibodies as indicated in Table 5 and detected using the appropriate HRP-conjugated secondary antibodies using chemoluminescence detection (Millipore). Bands from western blots were quantified in the dynamic range using the Gel analysis module in ImageJ software.", "data": [{"substance": "CTSS shRNA: shRNA targeting CTSS: GATAAAGTTTGCTAAGTAA—TTACTTAGCAAACTTTATC, in pRetroSuper vector (loop; in pRetroSuper vector)", "values": [{"measurement": "CTSS KD efficiency", "value": 90, "unit": "%"}]}]}
